Test results as given in patent publication US20230339874A1, “PIPERAZINYL COMPOUNDS AND METHODS FOR TREATING NEMATODE INFECTIONS” (The Governing Council of the University of Toronto, priority 2020, published 2023).
Read-outs that look alike come from different tables or passages of the source.

Columns and labels:
[1] = tested on: Pristionchus pacificus young adult animals; experiment: Pristionchus pacificus young adult abnormal locomotory behaviour on solid agar; assay type: in vivo; conditions: read-out: P. pacificus, young adult 1 h any phene at 1 h (EC50 (μM))
[2] = tested on: C. elegans L3 larvae; experiment: C. elegans L3 larvae abnormal locomotory behaviour on solid agar; conditions: solid agar MYOB + E. coli OP50, mean of 4 replicates; for % C. elegans L3 larvae any phene 1 h (conc.): 1 h exposure; for % C. elegans L3 larvae any phene 6 h (conc.): 6 h exposure; for % C. elegans L3 larvae any phene 24 h (conc.): 24 h exposure
Experimental: 20 animals were scored after either 1, 6 or 24 hours of exposure to drug (as indicated) per replicate. […] Data are reported as the mean % of animals with abnormal phenotype over 4 independent replicates.

[3] = tested on: Danio rerio (zebrafish) embryos; experiment: Danio rerio (zebrafish) embryo abnormal developmental phenotype; assay type: in vivo
[4] = tested on: Heligmosomoides polygyrus larval stage 3 (L3) worms; assay type: in vivo; conditions: 72 h incubation, one replicate
[5] = tested on: Strongyloides ratti L3; assay type: in vivo; conditions: 72 h incubation, 1 replicate
[6] = tested on: D. immitis larval stage 3 (L3) worms; experiment: D. immitis L3 development assay; assay type: in vivo; conditions: 72 h, read-out: D. immitis L3 development EC50 (μM)
[7] = 1 h exposure, tested at 3.75, 15 and 60 μM, NA = not active, no phenotype at 60 μM
[8] = 1 day post fertilization embryos through 48 h of development, tested at 15 and 3.75 μM, select compounds at 60 and 30 μM, read-out: D. rerio (zebrafish) any phenotype EC50
[9] = read-out: D. rerio (zebrafish) any phenotype EC50 (μM)

Structure (SMILES)	EC50 [1, 7]	% C. elegans L3 larvae any phene 1 h (conc.) ([2]; 3.75 uM)	% C. elegans L3 larvae any phene 6 h (conc.) ([2]; 3.75 uM)	% C. elegans L3 larvae any phene 24 h (conc.) ([2]; 3.75 uM)	% C. elegans L3 larvae any phene 1 h (conc.) ([2]; 15 uM)	% C. elegans L3 larvae any phene 6 h (conc.) ([2]; 15 uM)	% C. elegans L3 larvae any phene 24 h (conc.) ([2]; 15 uM)	% C. elegans L3 larvae any phene 1 h (conc.) ([2]; 60 uM)	% C. elegans L3 larvae any phene 6 h (conc.) ([2]; 60 uM)	% C. elegans L3 larvae any phene 24 h (conc.) ([2]; 60 uM)	EC50 [3, 8]	H. Polygyrus % lethality L3 25 μM [4]	S. ratti L3 % lethality 25 μM [5]	EC50 [3, 9]	EC50 ([1]; 1 h)	EC50 [6]
O=C(C1CCCC1)N1CCN(c2ccc([N+](=O)[O-])cc2)CC1 [III-b]	> 60 µM	0.0%	0.0%	0.0%	0.0%	0.0%	0.0%	9.2%	8.3%	0.0%	7.8 µM					
FC(F)(F)c1cccc(N2CCN(CC3CCCCC3)CC2)c1 [VI-g]		9.2%	0.0%	0.0%	65.0%	21.7%	0.0%	94.2%	54.2%	1.7%		11.6%	0%	29.3 µM		
FC(F)(F)c1cccc(N2CCN(C3CCCCCCC3)CC2)c1 [VI-i]		26.7%	0.0%	0.0%	70.0%	0.0%	0.0%	96.7%	58.3%	5.0%		11.2%	0%	4 µM	49.6 µM	> 50 µM
Fc1ccccc1N1CCN(C2CCCCCC2)CC1 [VI-j]		25.8%	0.8%	0.0%	69.2%	12.5%	0.0%	100.0%	41.7%	9.2%		35.4%	66.7%	21.1 µM	41.5 µM	
O=[N+]([O-])c1cccc(CN2CCN(C3CCCCC3)CC2)c1 [II-a]		0.8%	0.0%	0.0%	0.0%	0.0%	0.0%	6.7%	2.5%	0.0%					> 60 µM	
O=C(C1CCCCC1)N1CCN(c2ccc([N+](=O)[O-])cc2)CC1 [III-a]	> 60 µM	0.8%	0.8%	0.0%	0.8%	5.8%	0.0%	4.2%	24.2%	0.0%	> 15 µM					> 50 µM
FC(F)(F)c1cccc(N2CCN(C3CCCCCC3)CC2)c1 [VI-h]		64.2%	0.0%	0.0%	100.0%	37.5%	25.0%	100.0%	100.0%	62.5%		0%	0%	7.8 µM		
O=[N+]([O-])c1ccc(CN2CCN(C3CCCC3)CC2)cc1 [II-b]		0.0%	0.8%	0.0%	2.5%	0.0%	0.0%	23.3%	29.2%	0.0%					> 60 µM	
CC1CCC(N2CCN(c3cccc(Cl)c3)CC2)C1 (centres unmarked) [VI-d]		80.0%	11.7%	0.0%	100.0%	59.2%	0.0%	100.0%	100.0%	66.7%		56.5%	17.9%	15 µM	2.5 µM	
O=C(c1ccc([N+](=O)[O-])cc1)N1CCN(C2CCCC2)CC1 [III-d]	> 60 µM	0.8%	0.0%	0.0%	14.2%	1.7%	0.0%	30.8%	17.5%	0.0%	> 15 µM					
CCN1CCN(CC2CCCCC2)CC1 [I-a]		3.3%	0.0%	0.0%	6.7%	0.0%	0.0%	19.2%	5.8%	0.0%				> 15 µM	> 60 µM	
c1cc(N2CCN(CC3CCC3)CC2)ccn1 [IV-b]		4.2%	0.0%	0.0%	21.7%	0.8%	0.0%	30.0%	4.2%	1.7%				> 15 µM		
O=C(C1CCC1)N1CCN(c2ccc(F)cc2)CC1 [III-c]	> 60 µM	0.0%	0.0%	0.0%	10.0%	0.0%	0.0%	27.5%	15.0%	0.0%	> 15 µM					
FC(F)(F)c1cccc(N2CCN(CC3CC4C=CC3C4)CC2)c1 (centres unmarked) [VI-f]		34.2%	0.0%	0.0%	81.7%	83.2%	52.5%	100.0%	100.0%	92.5%		0%	0%	7.8 µM	2.8 µM	
Cc1cc([N+](=O)[O-])ccc1N1CCN(CC2CCCCC2)CC1 [V-a]		15.8%	0.0%	0.0%	33.3%	15.8%	0.0%	63.3%	27.5%	0.0%				5.1 µM	> 60 µM	15 µM
c1cc(N2CCN(CC3CCCCC3)CC2)ccn1 [IV-a]		0.0%	0.0%	0.0%	10.8%	0.0%	0.0%	24.2%	12.5%	0.0%				> 15 µM		
